The record followed here is patent publication US9375002B2, “5-aminopyrimidine derivatives and use thereof for combating undesired plant growth” (BAYER INTELLECTUAL PROPERTY GMBH, priority 2012, dated 2016).

Common to all, as to type: in vivo
Assay [1] deals with Abutilon theophrasti. The experiment in a line: Post-emergence herbicidal effect. As to conditions: 1280 g/ha, visual rating after about 3 weeks. As for the experimental part: (§1) ABUTH: Abutilon theophrasti ALOMY: Alopecurus myosuroides 2. Post-Emergence Herbicidal Effect and Crop Plant Compatibility Seeds of monocotyledonous and dicotyledonous weed and crop plants are placed in sandy loam in wood-fiber pots, covered with soil and cultivated in a greenhouse under good growth conditions. 2 to 3 weeks after sowing, the test plants are treated at the one-leaf stage. The compounds according to the invention, formulated in the form of wettable powders (WP) or as emulsion concentrates (EC), are then sprayed as aqueous suspension or emulsion at a water application rate of 600 to 800 I/ha (converted) with the addition of 0.2% of wetting agent onto the green parts of the plants. After the test plants have been kept in the greenhouse under optimum growth conditions for about 3 weeks, the activity of the preparations is rated visually in comparison to untreated controls (herbicidal activity in percent (%): 100% activity=the plants have died, 0% activity=like control plants).

In the next assay the test system is Stellaria media. The experiment in a line: Pre-emergence herbicidal effect. As to conditions: 1280 g/ha, visual assessment after 3 weeks. From the text: (§2) 1. Pre-Emergence Herbicidal Effect and Crop Plant Compatibility Seeds of monocotyledonous and dicotyledonous weed plants and crop plants are placed in wood-fiber pots in sandy loam and covered with soil. The inventive compounds, formulated in the form of wettable powders (WP) or as emulsion concentrates (EC), are then applied to the surface of the covering soil as an aqueous suspension or emulsion at a water application rate of 600 to 800 I/ha (converted) with addition of 0.2% wetting agent. After the treatment, the pots are placed in a greenhouse and kept under good growth conditions for the test plants. The damage to the test plants is assessed visually after a test period of 3 weeks by comparison with untreated controls (herbicidal activity in percent (%): 100% action=the plants have died, 0% action=like control plants). STEME: Stellaria media VERPE: Veronica persica

For a further assay, the system named is Veronica persica. The experiment in a line: Pre-emergence herbicidal effect. To be noted: 1280 g/ha, visual assessment after 3 weeks.
Description: as §2

In the next assay the test system is Setaria viridis. Kind of assay: Pre-emergence herbicidal effect. As to conditions: 1280 g/ha, visual assessment after 3 weeks.
Description: as §2, with “POLCO: Polygonum convolvulus SETVI: Setaria viridis” for “STEME: Stellaria media VERPE: Veronica persica”

The subject of assay [2] is Polygonum convolvulus. Kind of assay: Pre-emergence herbicidal effect. To be noted: 1280 g/ha, visual assessment after 3 weeks.
Description: as §2, with “POLCO: Polygonum convolvulus SETVI: Setaria viridis” for “STEME: Stellaria media VERPE: Veronica persica”

For another assay, the system named is Echinochloa crus-galli. The experiment in a line: Pre-emergence herbicidal effect. As to conditions: 1280 g/ha, visual assessment after 3 weeks.
Description: as §2, with “AMARE: Amaranthus retroflexus ECHCG: Echinochloa crus-galli” for “STEME: Stellaria media VERPE: Veronica persica”

Another assay deals with Amaranthus retroflexus. Kind of assay: Pre-emergence herbicidal effect. To be noted: 1280 g/ha, visual assessment after 3 weeks.
Description: as §2, with “AMARE: Amaranthus retroflexus ECHCG: Echinochloa crus-galli” for “STEME: Stellaria media VERPE: Veronica persica”

The test system of assay [3] is Abutilon theophrasti. Kind of assay: Pre-emergence herbicidal effect. To be noted: 1280 g/ha, visual assessment after 3 weeks.
Description: as §2, with “ABUTH: Abutilon theophrasti ALOMY: Alopecurus myosuroides” for “STEME: Stellaria media VERPE: Veronica persica”

Another assay concerns Alopecurus myosuroides. Kind of assay: Pre-emergence herbicidal effect. As to conditions: 1280 g/ha, visual assessment after 3 weeks.
Description: as §2, with “ABUTH: Abutilon theophrasti ALOMY: Alopecurus myosuroides” for “STEME: Stellaria media VERPE: Veronica persica”

Assay [4] concerns Polygonum convolvulus. Kind of assay: Post-emergence herbicidal effect. To be noted: 1280 g/ha, visual rating after about 3 weeks. As for the experimental part: as §1, with “POLCO: Polygonum convolvulus SETVI: Setaria viridis” for “ABUTH: Abutilon theophrasti ALOMY: Alopecurus myosuroides”
The subject of a further assay is Viola tricolor. Kind of assay: Pre-emergence herbicidal effect. As to conditions: 1280 g/ha, visual assessment after 3 weeks.
Description: as §2, with “VIOTR: Viola tricolor” for “STEME: Stellaria media VERPE: Veronica persica”

Regarding `CCc1ccc2c(c1)C(Nc1cnc(S(C)(=O)=O)nc1)CCO2` (racemic) [compound 65], the “herbicidal activity ABUTH” value in the assay with Abutilon theophrasti [1] came out at 90%; in the assay with Abutilon theophrasti [3], 100%. In addition, in the assay with Stellaria media, the “herbicidal activity STEME” value amounted to 100%. Moreover, the “herbicidal activity VERPE” value in the assay with Veronica persica is reported as 100%. Moreover, in the assay with Setaria viridis, the “herbicidal activity SETVI” value is 100%. For the same compound, the entries for the “herbicidal activity POLCO” value in the assay with Polygonum convolvulus [2] and in the assay on Polygonum convolvulus [4] were 100% and 80%, respectively. In addition, in the assay on Echinochloa crus-galli, the “herbicidal activity ECHCG” value amounted to 100%. Further, the “herbicidal activity AMARE” value in the assay with Amaranthus retroflexus is given as 100%. For the same compound, the “herbicidal activity ALOMY” value with Alopecurus myosuroides turned out to be 90%. The “herbicidal activity VIOTR” value in the assay with Viola tricolor was found to be 100%.

As to `CCc1ccc2c(c1)C(Nc1cnc(S(C)(=O)=O)nc1C(=O)O)CCO2` (racemic) [compound 68], the “herbicidal activity ABUTH” value in the assay with Abutilon theophrasti [1] is recorded as 90%; with Abutilon theophrasti [3], 100%. Further, the “herbicidal activity STEME” value in the assay on Stellaria media was 100%. The “herbicidal activity VERPE” value in the assay on Veronica persica is on record as 100%. In the assay on Setaria viridis, the “herbicidal activity SETVI” value came to 100%. For the same compound, the “herbicidal activity POLCO” value is on record as 100% with Polygonum convolvulus [2] and 80% with Polygonum convolvulus [4]. Further, the “herbicidal activity ECHCG” value with Echinochloa crus-galli was determined as 100%. In addition, the “herbicidal activity AMARE” value with Amaranthus retroflexus is 100%. In addition, the “herbicidal activity ALOMY” value in the assay on Alopecurus myosuroides amounted to 100%. Further, the “herbicidal activity VIOTR” value in the assay on Viola tricolor came to 100%.

For the compound `Cc1ccc2c(c1)[C@H](Nc1cnc(S(C)(=O)=O)nc1)[C@@H](C)C2` [compound 134], the results for the “herbicidal activity ABUTH” value with Abutilon theophrasti [1] and in the assay on Abutilon theophrasti [3] were 90% and 100%, respectively. The “herbicidal activity STEME” value with Stellaria media came to 100%. Besides, in the assay on Veronica persica, the “herbicidal activity VERPE” value is given as 100%. Further, the “herbicidal activity SETVI” value in the assay with Setaria viridis was 100%. The “herbicidal activity POLCO” value with Polygonum convolvulus [2] worked out at 100%; with Polygonum convolvulus [4] it was 90%. Further, in the assay on Echinochloa crus-galli, the “herbicidal activity ECHCG” value turned out to be 100%. Besides, the “herbicidal activity AMARE” value with Amaranthus retroflexus is 100%. In addition, in the assay on Alopecurus myosuroides, the “herbicidal activity ALOMY” value is listed as 100%. Besides, the “herbicidal activity VIOTR” value in the assay on Viola tricolor came to 100%.
